Assay results published in paper PMC6233306 (Bioorganic & medicinal chemistry letters, 2018).
Converted amounts (≈) assume the structure as drawn.

Key:
[1] = Chemical stability of coumarin core towards organic bases; assay type: physicochemical; settings: prolonged time at ambient temperature; gives equimolar ring-opened product 5
[2] = tested on: Mtb H37Rv; experiment: Mtb H37Rv growth inhibition; assay type: cell-based, Mycobacterium tuberculosis; settings: for MIC90: Mycobacterium tuberculosis, H37RV, read-out: Mtb H37Rv MIC90; for MICs: in words
[3] = Kinetic aqueous solubility; assay type: physicochemical; settings: pH 7.4, water, kinetic from dmso stock
[4] = tested on: H37Rv

Compound	MIC90 [2] [µM]	further results
Cc1cc2oc(=O)cc(-c3ccc(F)cc3)c2c(C)c1-c1ccc(CN2CCOCC2)cc1 [Compound 4]		stability towards organic bases such as morpholine [1]: not stable
Cc1cc2nccc(-c3ccccc3)c2c(C)c1-c1ccc(CN2CCOCC2)cc1 [Compound 8]	0.45 (≈ 0.184 µg/mL)	
Cc1cc2nccc(-c3ccccc3Cl)c2c(C)c1-c1ccc(CN2CCOCC2)cc1 [Compound 15a]	0.3 (≈ 0.133 µg/mL)	
Cc1cc2nccc(-c3cccc(Cl)c3)c2c(C)c1-c1ccc(CN2CCOCC2)cc1 [Compound 15b]	1.5 (≈ 0.664 µg/mL)	
Cc1cc2nccc(-c3ccc(Cl)cc3)c2c(C)c1-c1ccc(CN2CCOCC2)cc1 [Compound 15c]	> 80	
Cc1cc2nccc(-c3ccccc3C#N)c2c(C)c1-c1ccc(CN2CCOCC2)cc1 [Compound 15d]	2.5 (≈ 1.08 µg/mL)	
CCc1ccccc1CNc1ccnc2cc(C)c(-c3ccc(CN4CCOCC4)cc3)c(C)c12 [Compound 15e]	2.5 (≈ 1.16 µg/mL)	
Cc1cc2nccc(-c3ccccc3C(=O)O)c2c(C)c1-c1ccc(CN2CCOCC2)cc1 [Compound 15f]	40 (≈ 18.1 µg/mL)	
Cc1cc2nccc(-c3ccccc3C(N)=O)c2c(C)c1-c1ccc(CN2CCOCC2)cc1 [Compound 15g]	20 (≈ 9.03 µg/mL)	
COc1cccc(-c2ccnc3cc(C)c(-c4ccc(CN5CCOCC5)cc4)c(C)c23)c1Cl [Compound 15h]	10 (≈ 4.73 µg/mL)	
Cc1cc2nccc(-c3cccnc3)c2c(C)c1-c1ccc(CN2CCOCC2)cc1 [Compound 15j]		solubility kinetic [3]: > 150 µM
COc1ccncc1-c1ccnc2cc(C)c(-c3ccc(CN4CCOCC4)cc3)c(C)c12 [Compound 15k]	2.5 (≈ 1.1 µg/mL)	
COc1ncccc1-c1ccnc2cc(C)c(-c3ccc(CN4CCOCC4)cc3)c(C)c12 [Compound 15l]	2.5 (≈ 1.1 µg/mL)	
Cc1cc2nccc(-c3ccnn3C)c2c(C)c1-c1ccc(CN2CCOCC2)cc1 [Compound 15m]	2.5 (≈ 1.03 µg/mL)	solubility kinetic [3]: > 150 µM
Cc1cc2nccc(-c3cncnc3)c2c(C)c1-c1ccc(CN2CCOCC2)cc1 [Compound 15n]	2.5 (≈ 1.03 µg/mL)	solubility kinetic [3]: > 150 µM
Cc1cc2nccc(-c3ccccc3Cl)c2c(C)c1-c1ccncc1 [Compound 15p]	5 (≈ 1.72 µg/mL)	
CCOC(=O)c1cc(-c2ccccc2Cl)c2c(C)c(-c3ccncc3)c(C)cc2n1 [Compound 18]	10 (≈ 4.17 µg/mL)	
Cc1cc2nc(CO)cc(-c3ccccc3Cl)c2c(C)c1-c1ccncc1 [Compound 19]	3.75 (≈ 1.41 µg/mL)	
Cc1cc2nc(C(C)(C)O)cc(-c3ccccc3Cl)c2c(C)c1-c1ccncc1 [Compound 20]	> 40	
Cc1cc2nc(C(N)=O)cc(-c3ccccc3Cl)c2c(C)c1-c1ccncc1 [Compound 21a]	1.25 (≈ 0.485 µg/mL)	
CNC(=O)c1cc(-c2ccccc2Cl)c2c(C)c(-c3ccncc3)c(C)cc2n1 [Compound 21b]	0.8 (≈ 0.322 µg/mL)	MICs [2]: sub-micromolar; CFU reduction ([4]; lung, once-daily oral, dose-dependent, up to 50 mg/kg, 8-day acute model): ~4 log CFU; tolerability ([4]; mice, up to the highest dose of 50 mg/kg): no tolerability issue observed
Cc1cc2nc(C(=O)NC(C)C)cc(-c3ccccc3Cl)c2c(C)c1-c1ccncc1 [Compound 21c]	2.5 (≈ 1.07 µg/mL)	
Cc1cc2nc(C(=O)NCCF)cc(-c3ccccc3Cl)c2c(C)c1-c1ccncc1 [Compound 21d]	1.25 (≈ 0.542 µg/mL)	
Cc1cc2nc(C(=O)NCCO)cc(-c3ccccc3Cl)c2c(C)c1-c1ccncc1 [Compound 21e]	0.3 (≈ 0.13 µg/mL)	MICs [2]: sub-micromolar
Cc1cc2nc(C(=O)NCCN(C)C)cc(-c3ccccc3Cl)c2c(C)c1-c1ccncc1 [Compound 21f]	0.3 (≈ 0.138 µg/mL)	MICs [2]: sub-micromolar
Cc1cc2nc(C(=O)N3CCCC3)cc(-c3ccccc3Cl)c2c(C)c1-c1ccncc1 [Compound 23b]	5 (≈ 2.21 µg/mL)	
